Measured values from patent US12440576B2, “Antibody drug conjugates comprising sting agonists” (Mersana Therapeutics, Inc., priority 2020, dated 2025).
Like-named read-outs stand apart in the source and are kept apart here.

Key:
[1] = tested on: CXCL10 produced by the SKOV3 cancer cell monocultures; assay: CXCL10 ELISA of SKOV3 monocultures with conditioned media from immune cells (Example 36); assay type: cell-based, human; settings: 24 hours
Experimental: Conditioned media was prepared by culturing 1.5×10^6/mL PBMCs (two different donors), 1×10^6/mL primary monocytes (isolated from PBMCs from two different donors, as described in Example 29), or 1×10^6/mL THP1 cells in RPMI-1640 medium with 10% FBS and 1% penicillin/streptomycin for 24 hours at 37° C., 5% O2, in an incubator. The supernatants were collected and spun down at 2000 rpm for 10 min to remove any cells. SKOV3 cells were seeded in 96 well plates (30,000/well) and allowed to attach overnight in RPMI-1640 medium with 10% FBS and 1% penicillin/streptomycin. […] After incubation for 24 hours at 37° C., 5% O2 supernatants from the 96 well plates were analyzed for CXCL10 production using a human CXCL10 ELISA kit.

[2] = tested on: STING pathway in THP1-Dual cells co-cultured with SKBR3 cancer cells; assay: Cancer cell/THP1-IRF3-Luciferase reporter cell co-culture assay, SKBR3 (Example 26B); assay type: cell-based; settings: Homo sapiens, SK-BR-3
[3] = tested on: OVCAR3-NucRed cancer cells; assay: OVCAR3-NucRed co-cultures with PBMCs, enriched monocytes or CD16-depleted monocytes (Example 31); assay type: cell-based, human; settings: 20 and 4 nM payload
Excerpt: Frozen human PBMCs (1×10^8) were thawed and aliquoted into three tubes: one aliquot was subjected to human monocyte enrichment [StemCell Technologies] (“CD16 depleted monocytes”), one aliquot was subjected to human monocyte enrichment without CD16 depletion [StemCell Technologies] (“enriched monocytes”), and one aliquot was not subjected to enrichment (“PBMCs”). For flow cytometry, cells (50,000) from each group were transferred to a U-bottom 96-well plate in 4-replicates, washed with PBS and stained with live/dead fixable Aqua dead cell staining dye (Molecular Probes) followed by staining with fluorophore conjugated target specific (triplicates) or isotype control antibodies (Pacific Blue anti-human CD14, FITC anti-human CD3, APC/Cy7 CD16, PE anti-human CD32, PE/Cy7 anti-human CD64). Cells were fixed and surface expression of the proteins of interest was determined by flow cytometry analysis on a MACSQuant flow cytometer. Data analysis was performed by FlowJo software. Table 3 provides the frequency (% of single/live cells)) of CD14−/CD16+, CD14+/CD16+, CD14−/CD32+, CD14+/CD32+, CD14−/CD64+, CD14+/CD64+, and CD14−/CD3+ cells in PBMCs, enriched monocytes, and CD16-depleted monocyte populations
OVCAR3-NucRed cells (generated as described in Example 28) were seeded (15,000/well) in 96-well CellBind surface tissue culture plates (Corning) and allowed to attach for 6 hours in RPMI-1640 medium with 10% FBS and 1% penicillin/streptomycin. Culture medium was replaced with fresh media (50 μL). […] PBMCs, enriched monocytes, and CD16-depleted monocytes were prepared as described in Example 29. Live PBMCs (30,000/well), enriched monocytes (20,000/well), and CD16-depleted monocytes (20,000/well) were then added to the wells in culture medium (50 μL) and the plate was placed in an IncuCyte© live cell imaging instrument in an incubator (37° C., 5% 02) and scanned every 4 hours over 2 days. The number of red objects (cancer cells) were quantified using the IncuCyte© Zoom software. Red object confluency in each well was normalized to its own T=0 time point red object confluency.

[4] = tested on: IL29/IL28b induction (IFNλ1/λ3); assay: Type III IFN induction, human IL29/IL28b ELISA, SKBR3/PBMC co-cultures (Example 33); assay type: cell-based; settings: SK-BR-3, SKBR3/PBMC co-culture, supernatants 24 hours post treatment
Experimental: (§1) Type III IFN induction: Co-cultures of SKBR3 cells and PBMCs were setup as described above to analyze the induction of Type III Interferons in supernatants 24 hours post treatment using a human IL29/IL28b ELISA kit.

[5] = tested on: THP1-Dual cells cultured on Her2 recombinant protein coated plates; assay: THP1 luciferase reporter cells on Her2 protein coated plates (Example 27B); assay type: cell-based; settings: Homo sapiens
Experimental: The wells were then washed 1× with PBS-T and blocked by incubation with BSA (3% in PBS-T) for 1 hour at room temperature. […] THP1-dual reporter cells (50,000) were added into each well and incubated for 20 hours at 37° C. in a humidified atmosphere of 5% CO2. Cell culture supernatants (20 μl) from each incubated sample was added to resuspended QUANTI-Luc (50 μl) and the luminescent signal was measured immediately using a SpectraMax M5 plate reader (Molecular Devices). The EC50 value was determined from the dose response curve.

[6] = tested on: STING pathway in THP1-Dual cells co-cultured with OVCAR3 cancer cells; assay: Cancer cell/THP1-IRF3-Luciferase reporter cell co-culture assay, OVCAR3 (Example 26A); assay type: cell-based; settings: Homo sapiens, OVCAR-3, 20 h
Experimental: Induction of STING pathway in immune cells: The induction of STING pathway in immune cells by NaPi2b-targeted STING ADC was evaluated by a cancer cell/THP1-IRF3-Luciferase reporter cell co-culture assay. OVCAR3 human ovarian carcinoma cells were seeded in 96-well CellBind surface tissue culture plates (15,000/well) and allowed to attach for 6 hours in RPMI-1640 medium with 10% FBS and 1% penicillin/streptomycin. […] THP1-dual reporter cells (30,000) were then added to each well and the incubation continued for 20 hours at 37° C. in a humidified atmosphere of 5% CO2. Cell culture supernatants (20 μl) from each incubated sample was added to resuspended QUANTI-Luc (50 l) and the luminescent signal was measured immediately using a SpectraMax M5 plate reader (Molecular Devices). The EC50 value was determined from the dose response curve.

[7] = tested on: THP1-Dual cells cultured on NaPi2b recombinant peptide coated plates; assay: THP1 luciferase reporter cells on NaPi2b peptide coated plates (Example 27A); assay type: cell-based; settings: Homo sapiens, 20 h
Experimental: Human NaPi2b-derived peptide ([sequence]) was coated onto the surface of each well of a 96-well plate by incubation with the peptide (1p g/mL in PBS), overnight at 4° C. The wells were then washed 1× with PBS-T and blocked by incubation with BSA (3% in PBS-T) for 1 hour at room temperature. […] THP1-dual reporter cells (50,000) were added into each well and incubated for 20 hours at 37° C. in a humidified atmosphere of 5% CO2. Cell culture supernatants (20 μl) from each incubated sample was added to resuspended QUANTI-Luc (50 μl) and the luminescent signal was measured immediately using a SpectraMax M5 plate reader (Molecular Devices). The EC50 value was determined from the dose response curve.

SKBR3 NucRed cells = assay: Cancer cell killing activity in SKBR3 NucRed/PBMC or primary human monocyte co-cultures (Example 33); assay type: cell-based
Experimental: 20,000 cells (per well) SKBR3 NucRed cells were seeded in 96-well tissue culture plates and allowed to attach 6 hours in 50 μL of RPMI-1640 medium with 10% FBS and 1% penicillin/streptomycin.

[8] = tested on: Type III Interferons IFNλ1/IFNλ3 (IL29/IL28b); assay: IFNλ1/IFNλ3 (IL29/IL28b) production, STING wild type SKBR3/PBMC co-cultures (Example 42); assay type: cell-based, human
Experimental: as §1

[9] = tested on: STING wild type (sgNT-2) SKBR3 cells; assay: PBMC killing assay, STING wild type SKBR3 NucRed cells (Examples 30, 30A); assay type: cell-based, human; settings: 100, 25, 5 and 1 nM payload
[10] = tested on: Type III Interferons IFNλ1/IFNλ3 (IL29/IL28b); assay: IFNλ1/IFNλ3 (IL29/IL28b) production, STING knock out SKBR3/PBMC co-cultures (Example 42); assay type: cell-based, human
Experimental: as §1

CXCL10 induction [11] = assay: CXCL10 induction in SKBR3 cancer cell/PBMC and monocyte co-cultures (Example 33); assay type: cell-based; settings: Homo sapiens
[12] = tested on: STING pathway in THP1-Dual cells co-cultured with SKOV3 cancer cells; assay: Cancer cell/THP1-IRF3-Luciferase reporter cell co-culture assay, SKOV3 (Example 34); assay type: cell-based; settings: Homo sapiens, SK-OV-3, 20 h
Experimental: The induction of STING pathway in immune cells by Her2-targeted STING ADC was evaluated by a cancer cell/THP1-IRF3-Luciferase reporter cell co-culture assay. SKOV3 human ovarian adenocarcinoma cells were seeded in 96-well CellBind surface tissue culture plates (20,000/well) and allowed to attach for 6 hours in McCoy's 5a medium with 10% FBS and 1% penicillin/streptomycin. […] 50,000 THP1-dual reporter cells were then added to each well and the incubation continued for 20 hours at 37° C. in a humidified atmosphere of 5% CO2. Cell culture supernatants (20 μL) from each incubated sample was added to resuspended QUANTI-Luc (50 μL) and the luminescent signal for IRF3 was measured immediately using a SpectraMax M5 plate reader (Molecular Devices). The EC50 value was determined from the dose response curve.

CXCL10 induction [13] = assay: CXCL10 induction in Calu3 cancer cell/PBMC co-cultures (Example 35); assay type: cell-based; settings: Homo sapiens, Calu-3, read-out: EC50 - PBMC (CXCL10 induction)
Experimental: CXCL10 induction: Calu3 human lung adenocarcinoma cells were seeded in 96-well tissue culture plates and allowed to attach overnight at 37° C., 5% CO2 in 100 μL of EMEM medium with 10% FBS and 1% penicillin/streptomycin. Culture medium was replaced with fresh media (100 μL).

[14] = tested on: SKOV3 human ovarian cancer cells; assay: SKOV3 xenograft, Fc mutant HER2 ADCs (Example 54); assay type: in vivo, mouse; settings: iv day 1, n=10: Conjugate 8j 2.71/0.10, diABZI IV STING agonist 0/5 mg/kg
Experimental: Tumors were measured twice weekly using digital calipers and tumor volumes were calculated using the formula: tumor volume (mm^3)=(width^2×length)/2. Body weights were recorded daily for the first week and twice weekly thereafter. Animals remained on study until individual tumor volume reached ≥1000 mm^3≥1500 mm^3 or as indicated. Percent change in body weight was calculated using the formula: body weight change (%)=((weight^study day X−weight^study day 1)/weight^study day 1)*100. Tumor volumes are reported as mean±standard error of the mean (SEM). Tumor growth inhibition (% TGI) was defined as the percent difference in mean tumor volumes (MTVs) between treated and control groups. Tumor size was measured throughout each efficacy study to determine tumor growth inhibition (TGI). Percent tumor regression was calculated using the formula: % regression=(1−(mean tumor volume^final)/(mean tumor volume^day 1))*100. A partial response (PR) is defined as a tumor volume of 50% or less for day 1 volume for three consecutive measurements and equal to or greater than 13.5 mm^3 for at least one of these three measurements. A complete response (CR) is defined as a tumor volume less than 13.5 mm^3 for three consecutive measurements. A tumor-free survivor (TFS) is classified as having a CR at the end of study. […]

OVCAR3-NucRed cells = assay: OVCAR3-NucRed/PBMC co-culture killing assay (Example 28B); assay type: cell-based, human
Experimental: OVCAR3 human ovarian carcinoma cells stably expressing nuclear restricted mKate fluorescent red protein were generated by transduction with IncuCyte© NucLight Red Lentivirus reagent. Stably transduced cells (designated as OVCAR3-NucRed cells) selected in puromycin-containing media (2 μg/mL) for two days, were seeded in 96-well tissue culture plates (8,000/well) and allowed to attach overnight in RPMI-1640 medium with 10% FBS and 1% penicillin/streptomycin. Culture medium was replaced with fresh media (50 μL). […] Frozen human peripheral blood mononuclear cells (PBMCs) were thawed according to the supplier's instructions and were added to each well (40,000 PBMCs in 50 μL media) and the plate was placed in an IncuCyte© live cell imaging instrument in an incubator (37° C., 5% 02) and scanned every 4 hours over 2 days. The number of red objects (cancer cells) were quantified using the IncuCyte© Zoom software. Red object confluency in each well was normalized to its own T=0 time point red object confluency.
OVCAR3-NucRed cells were seeded in 96-well tissue culture plates (20,000/well) and allowed to attach 6 hours in RPMI-1640 medium with 10% FBS and 1% penicillin/streptomycin. Culture medium was replaced with fresh media (50 μL). […] The number of red objects (cancer cells) were quantified using the IncuCyte© Zoom software. […]

CCn1nc(C)cc1C(=O)Nc1nc2cc(C(N)=O)cc(OC)c2n1C/C=C/Cn1c(NC(=O)c2cc(C)nn2CC)nc2cc(C(N)=O)cc(OCCCO)c21 [Compound 1]
O.D. 450 + 100 nM Compound 1 (CXCL10) ([1]; Conditioned Media: Monocyte (Donor1)): 1.62 +/− 0.050 O.D. 450 | O.D. 450 + 100 nM Compound 1 (CXCL10) ([1]; Conditioned Media: Monocyte (Donor2)): 0.97 +/− 0.142 O.D. 450 | O.D. 450 + 100 nM Compound 1 (CXCL10) ([1]; Conditioned Media: None): 0.16 +/− 0.038 O.D. 450 | O.D. 450 + 100 nM Compound 1 (CXCL10) ([1]; Conditioned Media: PBMC (Donor1)): 2.22 +/− 0.084 O.D. 450 | O.D. 450 + 100 nM Compound 1 (CXCL10) ([1]; Conditioned Media: PBMC (Donor2)): 0.83 +/− 0.086 O.D. 450 | O.D. 450 + 100 nM Compound 1 (CXCL10) ([1]; Conditioned Media: THP1): 0.18 +/− 0.043 O.D. 450 | EC50 [2]: 7.4 nM | killing of OVCAR3-NucRed cancer cells by CD16 depleted monocytes (FIG. 5C) [3]: induced cancer cell killing | killing of OVCAR3-NucRed cancer cells by PBMCs (FIG. 5A) [3]: only in enriched monocyte and CD16-depleted monocyte co-cultures | killing of OVCAR3-NucRed cancer cells by enriched monocytes (FIG. 5B) [3]: induced cancer cell killing | EC50 [4]: 28.3 nM | EC50 [5]: 8.8 nM | EC50 [6]: 6.8 nM | EC50 [7]: 5.18 nM | IC50 (SKBR3 NucRed cells; SK-BR-3, read-out: IC50 - Monocyte (killing activity)): 8.32 nM | IC50 (SKBR3 NucRed cells; SK-BR-3, read-out: IC50 - PBMC (killing activity)): 9.51 nM | EC50 ([8]; Homo sapiens, SK-BR-3, read-out: EC50 (IL29/IL28b production)): 49.3 nM | Bmax (IL29/IL28b production) ([8]; STING wild type SKBR3/PBMC): 0.5 OD450 | killing of SKBR3 cells/PBMC co-cultures (FIG. 3A) [9]: showed activity in STING wild type (sgNT-2) SKBR3 cells/PBMC co-cultures at 100 nM only | Bmax (IL29/IL28b production) ([10]; STING knock out (sgRNA#3) SKBR3/PBMC): 0 OD450 | Bmax (IL29/IL28b production) ([10]; STING knock out (sgRNA#4) SKBR3/PBMC): 0 OD450 | EC50 (CXCL10 induction [11]; Monocyte, read-out: EC50 - Monocyte (CXCL10 induction)): 31.1 nM | EC50 (CXCL10 induction [11]; SK-BR-3, read-out: EC50 - PBMC (CXCL10 induction)): 26.1 nM

CCc1nc(C)oc1C(=O)Nc1nc2cc(C(N)=O)cnc2n1C/C=C/Cn1c(NC(=O)c2oc(C)nc2CC)nc2cc(C(N)=O)cc(OCCCO)c21 [Compound 30]
EC50 [12]: 38.5 nM | EC50 (CXCL10 induction [13]): 160 nM

diABZI IV STING agonist
PR (partial responses) [14]: 7

B1: Conjugate 81: "XMT-1535 was used instead of XMT-1519 and 2-(2-(2-(2-aminoethoxy)ethoxy)ethoxy)acetic acid was incorporated" instead of (3-(2-(2-aminoethoxy)ethoxy)propanoyl)-L-alanine (conjugate, chains of the INN, looked up)
VH: QVQLVQSGAEVVKPGASVKMSCKASGYTFTGYNIHWVKQAPGQGLEWIGAIYPGNGDTSYKQKFRGRATLTADTSTSTVYMELSSLRSEDSAVYYCARGETARATFAYWGQGTLVTVSS
VL: DIQMTQSPSSLSASVGDRVTITCSASQDIGNFLNWYQQKPGKTVKVLIYYTSSLYSGVPSRFSGSGSGTDYTLTISSLQPEDFATYYCQQYSKLPLTFGQGTKLELK
modifications: drug-linker conjugate with PEG linker
lower payload concentration compared to Compound 1 for induction of cancer cell killing (OVCAR3-NucRed cells): 100 × | cancer cell killing by PBMCs (red object numbers, FIG. 1B) (OVCAR3-NucRed cells; 1-100 nM payload): robust induction of cancer cell killing
